Patent US20220153732A1, “PROTEIN SECRETION INHIBITORS” (KEZAR LIFE SCIENCES, priority 2019, published 2022)
Read-outs that look alike come from different tables or passages of the source.

Tests used:
Type in all cases: cell-based
[1] = test system: IL-2-FL/Gaussia Luciferase; assay: Dox Induced IL2-FL-Gluc Assay; conditions: 293FRT/TO cells, read-out: 24 hr Dox Inducible IL2FLGIuc 293FRT/TO: Mean IC50
Protocol: (§1) Transfected cells were selected for resistance to the selectable markers Hygromycin and Blasticidin to create a stable cell line that contained the IL-2-FL/Gaussia Luciferase cDNA insert whose expression was regulated under the T-RExTM system. The day before assay, cells were trypsinized and plated in 384-well tissue culture plates. The next day, compound dilutions in DMSO/media containing doxycycline were added to the wells and incubated at 37° C., 5% CO2. […] For chemical structures that include one or more stereoisomers, but are illustrated without indicating stereochemistry, the assay data refers to a mixture of stereoisomers.

[2] = test system: HER3-ss+4aa/Gaussia Luciferase; assay: Dox-Induced Her3-ss-Gluc Assay; conditions: 293FRT/TO cells, read-out: 24 hr Dox Inducible Her3(ss + 4)Gluc 293FRT/TO: Mean IC50
Protocol: (§2) Transfected cells were selected for resistance to the selectable markers Hygromycin and Blasticidin to create a stable cell line that contained the HER3-ss+4aa/Gaussia Luciferase cDNA insert whose expression was regulated under the T-REx™ system. The day before assay, cells were trypsinized and plated in 384-well tissue culture plates. The next day, compound dilutions in DMSO/media containing doxycycline were added to the wells and incubated at 37° C., 5% CO2.
(§3) For chemical structures that include one or more stereoisomers, but are illustrated without indicating stereochemistry, the assay data refers to a mixture of stereoisomers.

[3] = test system: human multiple myeloma cell line U266B1; assay: U266 Cell Viability Assay; conditions: U-266, 48 hr, U266B1 cells, Celltiter-Glo, read-out: 48 hr U266 Viability Celltiter-Glo: Mean EC50
Protocol: Cells were plated in 384-well tissue culture plates and treated with compound dilutions in DMSO/media. Plates were incubated at 37° C., 5% CO2 for 48 hours. After 48 hours, Celltiter-Glo® (Promega) was added to each well and luciferase signal was quantified using Tecan Infinite M1000 Pro for cell viability determination.
as §3

[4] = test system: PD1-ss+10aa/Gaussia Luciferase; assay: Dox-Induced PD1-ss-Gluc Assay; conditions: 293FRT/TO cells, read-out: 24 hr Dox Inducible PD1ssGluc 293FRT/TO: Mean IC50
Protocol: as §2, with “PD1-ss+10aa/Gaussia” for “HER3-ss+4aa/Gaussia”
as §3

[5] = test system: human multiple myeloma cell line NCI-H929; assay: H929 Cell Viability Assay; conditions: 48 hr, NCI-H929 cells, Celltiter-Glo, read-out: 48 hr H929 Viability Celltiter-Glo: Mean EC50
Protocol: Plates were incubated at 37° C., 5% CO2 for 48 hours. After 48 hours, Celltiter-Glo® (Promega) was added to each well and luciferase signal was quantified using Tecan Infinite M1000 Pro for cell viability determination.
as §3

[6] = test system: TNFα-FL/Gaussia Luciferase; assay: Dox Induced TNFα-FL-Gluc Assay; conditions: 293FRT/TO cells, read-out: 24 hr Dox Inducible TNFaFLGluc 293FRT/TO: Mean IC50
Protocol: as §1, with “TNFα-FL/Gaussia” for “IL-2-FL/Gaussia”

[7] = 24 hr doxycycline induction, Gaussia luciferase signal

Row | SMILES | IC50 [1, 7] | IC50 [2, 7] | EC50 [3] | IC50 [4, 7] | EC50 [5] | IC50 [6, 7] | IC50 ([1]; 24 hr, doxycycline-induced) | IC50 ([2]; 24 hr, doxycycline-induced) | IC50 ([4]; 24 hr, doxycycline-induced) | IC50 ([6]; 24 hr, doxycycline-induced)
1 | CC(C)OC(C)(C)c1csc(NC(=O)c2cccn2Cc2ccncc2Cl)n1 [Compound A238, 1-((3-chloropyridin-4-yl)methyl)-N-(4-(2-isopropoxypropan-2-yl)thiazol-2-yl)-1H-pyrrole-2-carboxamide] | 1200 nM | 1570 nM | > 25000 nM | 643 nM | > 25000 nM | 18300 nM | – | – | – | –
2 | Cc1cc(Cn2cccc2C(=O)Nc2nc(C(C)(C)OC(C)C)cs2)cc(C)n1 [Compound A97] | > 25000 nM | > 25000 nM | > 25000 nM | 18900 nM | > 25000 nM | > 25000 nM | – | – | – | –
3 | O=C(Nc1nc(/C=C/Cc2ccccc2)cs1)c1cccn1Cc1ccncc1 [Compound A218, N-(4-(3-phenylprop-1-en-1-yl)thiazol-2-yl)-1-(pyridin-4-ylmethyl)-1H-pyrrole-2-carboxamide] | 779 nM | 315 nM | > 25000 nM | 131 nM | 17100 nM | 3030 nM | – | – | – | –
4 | O=C(Nc1nc(N2CCc3ccccc3C2)cs1)c1cccn1Cc1ccncc1 [Compound A267] | > 25000 nM | > 25000 nM | > 25000 nM | 15400 nM | > 25000 nM | > 25000 nM | – | – | – | –
5 | O=C(Nc1nc([C@@H]2CCC[C@@H](c3ccccc3)C2)cs1)c1cccn1Cc1ccncc1 [Compound A271] | 951 nM | 912 nM | > 25000 nM | 316 nM | 15500 nM | 2870 nM | – | – | – | –
6 | CC(C)(OCC(F)(F)F)c1csc(NC(=O)c2cccn2Cc2ccncc2)n1 [Compound A15, 1-(pyridin-4-ylmethyl)-N-(4-(2-(2,2,2-trifluoroethoxy)propan-2-yl)thiazol-2-yl)-1H-pyrrole-2-carboxamide] | 110 nM | 318 nM | > 25000 nM | 169 nM | 16600 nM | 5430 nM | – | – | – | –
7 | CC(C)(C)c1csc(NC(=O)c2cccn2Cc2ccncc2Cl)n1 [Compound A77, N-(4-(tert-butyl)thiazol-2-yl)-1-((3-chloropyridin-4-yl)methyl)-1H-pyrrole-2-carboxamide] | 3100 nM | 4680 nM | > 25000 nM | 3050 nM | 25000 nM | > 25000 nM | – | – | – | –
8 | CCOC(C)(C)c1csc(NC(=O)c2cccn2Cc2ccncc2)n1 [Compound A27, N-(4-(2-ethoxypropan-2-yl)thiazol-2-yl)-1-(pyridin-4-ylmethyl)-1H-pyrrole-2-carboxamide] | 320 nM | 822 nM | > 25000 nM | 445 nM | > 25000 nM | 9520 nM | – | – | – | –
9 | O=C(Nc1nc([C@H]2[C@H](O)CCN2c2ccccc2)cs1)c1cccn1Cc1ccncc1 [Compound A351] | – | – | > 25000 nM | – | 7500 nM | – | 259 nM | 450 nM | 167 nM | 954 nM
10 | O=C(Nc1nc([C@H]2C[C@@H](OC3CCCCC3)CN2c2ccccc2)cs1)c1cccn1Cc1ccncc1 [Compound A354] | – | – | > 25000 nM | – | 901 nM | – | 21 nM | 16 nM | 6 nM | 54 nM
11 | CC(C)OC(C)(C)c1csc(NC(=O)c2cccn2Cc2ccncc2Br)n1 [Compound A41, 1-((3-bromopyridin-4-yl)methyl)-N-(4-(2-isopropoxypropan-2-yl)thiazol-2-yl)-1H-pyrrole-2-carboxamide] | 1980 nM | 2390 nM | > 25000 nM | 878 nM | 9520 nM | 12000 nM | – | – | – | –
12 | O=C(Nc1nc(C2=CC(c3ccccc3)CCC2)cs1)c1cccn1Cc1ccncc1 (stereo not drawn) [Compound A294] | – | – | > 25000 nM | – | > 25000 nM | – | 939 nM | 1050 nM | 499 nM | 4440 nM
13 | Cc1cc(C(=O)Nc2nc(C(C)(C)OC(C)C)cs2)n(Cc2ccncc2)c1 [Compound A48, N-(4-(2-isopropoxypropan-2-yl)thiazol-2-yl)-4-methyl-1-(pyridin-4-ylmethyl)-1H-pyrrole-2-carboxamide] | 2220 nM | 2690 nM | > 25000 nM | 1190 nM | > 25000 nM | > 25000 nM | – | – | – | –
14 | COc1cccc(C(C)OC(C)(C)c2csc(NC(=O)c3cccn3Cc3ccncc3)n2)c1 (stereo not drawn) [Compound A4, N-(4-(2-(1-(3-methoxyphenyl)ethoxy)propan-2-yl)thiazol-2-yl)-1-(pyridin-4-ylmethyl)-1H-pyrrole-2-carboxamide] | 148 nM | 91 nM | > 25000 nM | 38 nM | 2770 nM | 377 nM | – | – | – | –

Other lines, results leading:

Row | IC50 [1, 7] | IC50 [2, 7] | EC50 [3] | IC50 [4, 7] | EC50 [5] | IC50 [6, 7] | IC50 ([1]; 24 hr, doxycycline-induced) | IC50 ([2]; 24 hr, doxycycline-induced) | IC50 ([4]; 24 hr, doxycycline-induced) | IC50 ([6]; 24 hr, doxycycline-induced) | SMILES
15 | 460 nM | 503 nM | > 25000 nM | 271 nM | > 25000 nM | 8830 nM | – | – | – | – | CC1(C)CCc2sc(NC(=O)c3cccn3Cc3ccncc3)nc21 [Compound A22, N-(4,4-dimethyl-5,6-dihydro-4H-cyclopenta[d]thiazol-2-yl)-1-(pyridin-4-ylmethyl)-1H-pyrrole-2-carboxamide]
16 | 1410 nM | 1200 nM | > 25000 nM | 706 nM | > 25000 nM | 14800 nM | – | – | – | – | Cc1sc(NC(=O)c2cccn2Cc2ccncc2)nc1C(C)C [Compound A38]
17 | – | – | 16000 nM | – | 9980 nM | – | 424 nM | 145 nM | 47 nM | 1470 nM | COc1ccc(O[C@H]2C[C@H](c3csc(NC(=O)c4cccn4Cc4ccncc4)n3)C2)nc1 [Compound A314]
18 | 881 nM | 545 nM | 14400 nM | 163 nM | 19900 nM | 1410 nM | – | – | – | – | O=C(Nc1nc(C2=CCC(c3ccccc3)CC2)cs1)c1cccn1Cc1ccncc1 (stereo not drawn) [Compound A249, 1-(pyridin-4-ylmethyl)-N-(4-(1,2,3,6-tetrahydro-[1,1-biphenyl]-4-yl)thiazol-2-yl)-1H-pyrrole-2-carboxamide]
19 | 1140 nM | 600 nM | 16000 nM | 280 nM | 6670 nM | 2300 nM | – | – | – | – | O=C(Nc1nc([C@H]2C[C@@H]2c2ccccc2)cs1)c1cccn1Cc1ccncc1 [Compound A194, N-(4-((1S,2S)-2-phenylcyclopropyl)thiazol-2-yl)-1-(pyridin-4-ylmethyl)-1H-pyrrole-2-carboxamide]
20 | 165 nM | 174 nM | 7870 nM | 58 nM | 3890 nM | 420 nM | – | – | – | – | CC(OC(C)(C)c1csc(NC(=O)c2cccn2Cc2ccncc2)n1)c1ccccc1Cl (stereo not drawn) [Compound A8, N-(4-(2-(1-(2-chlorophenyl)ethoxy)propan-2-yl)thiazol-2-yl)-1-(pyridin-4-ylmethyl)-1H-pyrrole-2-carboxamide]
21 | 1400 nM | 648 nM | 20800 nM | 261 nM | 15200 nM | 4020 nM | – | – | – | – | O=C(Nc1nc([C@H]2CCN(c3ccccc3)C2)cs1)c1cccn1Cc1ccncc1 [Compound A290]
